Measured values: ChEMBL document CHEMBL3745712, “Identification of N-(4-((1R,3S,5S)-3-Amino-5-methylcyclohexyl)pyridin-3-yl)-6-(2,6-difluorophenyl)-5-fluoropicolinamide (PIM447), a Potent and Selective Proviral Insertion Site of Moloney Murine Leukemia (PIM) 1, 2, and 3 Kinase Inhibitor in Clinical Trials for Hematological Malignancies” (J Med Chem, 2015)

Assays:
cells [1] = type: functional, cell-based; settings: Homo sapiens, KMS-11, 72 h
Description: Antiproliferative activity against luciferase expressing human KMS11 cells after 72 hrs by Cell-TiterGlo assay

in vitro [2] = settings: rat, microsomes
in vitro [3] = settings: human, microsomes
in vitro [4] = settings: human, microsomes; remark: listed apart in the source
in vitro [5] = settings: rat, microsomes; remark: listed apart in the source
[6] = molecular target: Serine/threonine-protein kinase pim-1 (Homo sapiens, UniProt P11309)
[7] = molecular target: Serine/threonine-protein kinase pim-3 (Homo sapiens, UniProt Q86V86)
cells [8] = type: cell-based, KMS11; settings: Homo sapiens, KMS-11, 1 h

Serine/threonine-protein kinase pim-1, sequence (P11309 whole entry): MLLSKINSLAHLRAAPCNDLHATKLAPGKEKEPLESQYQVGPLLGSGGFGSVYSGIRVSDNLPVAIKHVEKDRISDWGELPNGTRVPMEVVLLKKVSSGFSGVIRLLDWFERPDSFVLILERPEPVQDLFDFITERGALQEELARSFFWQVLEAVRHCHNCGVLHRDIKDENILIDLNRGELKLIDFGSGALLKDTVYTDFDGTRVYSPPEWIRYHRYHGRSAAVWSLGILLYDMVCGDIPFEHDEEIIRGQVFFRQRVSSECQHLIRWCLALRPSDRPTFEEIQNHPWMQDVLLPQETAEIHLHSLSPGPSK

EC50 (cells [1])	half-life at 0.5 h, 1 µM (in vitro [2])	half-life at 0.5 h, 1 µM (in vitro [3])	CLhep predicted at 0.5 h, 1 µM (in vitro [4])	CLhep predicted at 0.5 h, 1 µM (in vitro [5])	Ki [6]	Ki [7]	EC50 (cells [8])	SMILES
670 nM	–	–	–	–	–	–	–	N[C@@H]1CCCN(c2c(/C=C3\SC(=O)NC3=O)cccc2-c2ccccc2)C1
–	92 min	> 180 min	< 6 mL/min/kg	–	–	–	–	C[C@@H]1C[C@H](N)C[C@H](c2ccncc2NC(=O)c2ccc(F)c(-c3ccccc3F)n2)C1
–	8 min	85 min	10 mL/min/kg	–	–	–	–	Nc1ccc(C2CCCCC2)nc1C(=O)Nc1cnccc1[C@@H]1CCC[C@H](N)C1
1200 nM	6 min	70 min	11 mL/min/kg	49 mL/min/kg	–	–	–	N[C@H]1CCCN(c2ccncc2NC(=O)c2csc(-c3c(F)cccc3F)n2)C1
390 nM	9 min	49 min	13 mL/min/kg	47 mL/min/kg	–	–	–	C[C@@H]1C[C@H](N)CN(c2ccncc2NC(=O)c2csc(-c3c(F)cccc3F)n2)C1
5000 nM	85 min	121 min	8 mL/min/kg	21 mL/min/kg	–	–	–	N[C@H]1CCC[C@@H](c2ccncc2NC(=O)c2csc(-c3c(F)cccc3F)n2)C1
910 nM	65 min	> 180 min	< 6 mL/min/kg	24 mL/min/kg	< 1 nM	4 nM	320 nM	C[C@@H]1C[C@H](N)C[C@H](c2ccncc2NC(=O)c2csc(-c3c(F)cccc3F)n2)C1
–	11 min	13 min	18 mL/min/kg	45 mL/min/kg	–	< 3 nM	–	C[C@@H]1C[C@H](N)CN(c2ccncc2NC(=O)c2ccc(F)c(-c3ccccc3F)n2)C1
1400 nM	13 min	25 min	16 mL/min/kg	44 mL/min/kg	< 1 nM	< 3 nM	–	N[C@H]1CCCN(c2ccncc2NC(=O)c2ccc(F)c(-c3c(F)cccc3F)n2)C1
–	3 min	14 min	18 mL/min/kg	52 mL/min/kg	< 1 nM	3 nM	–	Nc1ccc(C2CCCCC2)nc1C(=O)Nc1cnccc1N1CCC[C@H](N)C1
–	20 min	40 min	14 mL/min/kg	40 mL/min/kg	–	–	–	C[C@@H]1C[C@H](N)CN(c2ccncc2NC(=O)c2ccc(F)c(-c3c(F)cccc3F)n2)C1
5000 nM	–	–	–	–	–	–	–	CN1CCC(CNc2ccc3ncc(-c4cccc(OC(F)(F)F)c4)n3n2)CC1 [SGI-1776]
